Experimental data reported in patent US20060014940A1, “Cloning and characterization of slc26a6, slc26a1, and slc26a2 anion exchangers” (priority 2002, published 2006).

How the values were obtained:
human SLC26A3 (DRA) = target: T1, human SLC26A3 (DRA) (Homo sapiens, UniProt P40879); experiment: Cis-inhibition of 36Cl uptake in oocytes expressing human SLC26A3 (DRA); type: cell-based; settings: 10 mM anion (FIG. 19)
T1 construct: expressed in transfected cells; host or cells: Xenopus laevis oocytes (SLC26A3-injected)
T1 sequence (P40879 1-764): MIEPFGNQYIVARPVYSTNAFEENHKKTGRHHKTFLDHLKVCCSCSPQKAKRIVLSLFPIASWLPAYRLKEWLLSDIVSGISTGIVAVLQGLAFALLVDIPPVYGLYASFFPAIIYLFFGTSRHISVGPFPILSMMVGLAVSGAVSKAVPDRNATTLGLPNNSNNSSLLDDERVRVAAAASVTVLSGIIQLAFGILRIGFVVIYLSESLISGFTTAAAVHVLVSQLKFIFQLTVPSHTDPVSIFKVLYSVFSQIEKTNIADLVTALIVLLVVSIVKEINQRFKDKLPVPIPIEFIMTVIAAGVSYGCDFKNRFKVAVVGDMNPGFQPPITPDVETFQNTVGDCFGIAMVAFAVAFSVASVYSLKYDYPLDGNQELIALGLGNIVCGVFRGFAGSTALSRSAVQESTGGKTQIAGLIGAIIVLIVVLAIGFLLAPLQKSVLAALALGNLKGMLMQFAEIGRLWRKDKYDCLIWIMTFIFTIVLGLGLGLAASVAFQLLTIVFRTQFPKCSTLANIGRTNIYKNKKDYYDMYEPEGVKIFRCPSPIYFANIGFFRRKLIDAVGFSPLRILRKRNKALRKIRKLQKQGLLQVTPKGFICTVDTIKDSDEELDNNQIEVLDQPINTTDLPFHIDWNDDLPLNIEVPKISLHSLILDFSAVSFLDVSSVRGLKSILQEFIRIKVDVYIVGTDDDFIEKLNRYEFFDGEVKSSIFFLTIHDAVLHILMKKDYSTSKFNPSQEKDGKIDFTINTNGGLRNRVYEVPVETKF
Excerpt: FIG. 19 depicts cis-inhibition of ^36Cl^− uptake by various anions in oocytes expressing human SLC26A3 (DRA).
The SLC26A6 exchanger is a likely mediator of intestinal oxalate absorption and thus a potential therapeutic target in calcium-oxalate stone disease. Intestinal expression of the SLC26A3 or DRA protein is also robust, in keeping with the genetic role of SLC26A3 in congenital chloride-losing diarrhea. Hoglund, P. et al., 1996. […] Scott, D. A., et al., 1999; Scott, D.A. & Karniski, L. P., 2000.

rat DTDST = target: T2, rat DTDST (Rattus norvegicus, UniProt O70531); settings: Satoh, 1998; cited from earlier work
T2 sequence (O70531 1-739): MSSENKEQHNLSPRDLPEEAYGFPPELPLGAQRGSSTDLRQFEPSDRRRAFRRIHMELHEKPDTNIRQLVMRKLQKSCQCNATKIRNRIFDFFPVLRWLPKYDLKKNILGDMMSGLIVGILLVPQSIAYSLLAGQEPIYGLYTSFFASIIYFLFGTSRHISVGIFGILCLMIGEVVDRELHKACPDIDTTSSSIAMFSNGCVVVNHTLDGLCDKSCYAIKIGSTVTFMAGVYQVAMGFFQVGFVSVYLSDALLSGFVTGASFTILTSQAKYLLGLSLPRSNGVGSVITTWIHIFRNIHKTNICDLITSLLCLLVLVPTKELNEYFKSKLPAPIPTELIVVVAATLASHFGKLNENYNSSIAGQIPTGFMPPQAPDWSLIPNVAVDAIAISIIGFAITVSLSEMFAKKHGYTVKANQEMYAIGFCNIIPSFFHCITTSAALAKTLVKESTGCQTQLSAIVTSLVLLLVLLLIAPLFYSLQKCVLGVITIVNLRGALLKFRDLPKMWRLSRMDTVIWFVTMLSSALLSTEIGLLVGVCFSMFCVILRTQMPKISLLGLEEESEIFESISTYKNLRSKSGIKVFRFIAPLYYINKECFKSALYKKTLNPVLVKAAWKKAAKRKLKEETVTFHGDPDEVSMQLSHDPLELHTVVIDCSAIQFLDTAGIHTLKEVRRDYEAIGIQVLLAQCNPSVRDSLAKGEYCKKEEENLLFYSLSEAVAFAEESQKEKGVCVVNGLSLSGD

## O=C(O)C(=O)O [oxalate]
Human SLC26A3 (DRA)
  oxalate transport inferred from cis-inhibition of Cl transport: minimal if any
Rat DTDST
  cis-inhibition of sulphate transport: cis-inhibited
